Measurements taken from PMC5051147, “Ester Hydrolysis Differentially Reduces Aconitine-Induced Anti-hypersensitivity and Acute Neurotoxicity: Involvement of Spinal Microglial Dynorphin Expression and Implications for Aconitum Processing” (Frontiers in Pharmacology, 2016).

Assays:
[1] = system: heat hyperalgesia in spinal L5/L6 nerve–ligated neuropathic rats; test: Heat hyperalgesia (radiant heat paw withdrawal latency) after intrathecal injection in spinal nerve-ligated neuropathic rats; type: in vivo, rat
Procedure: An 18-cm polyethylene catheter (PE-10: 0.28-mm inner diameter and 0.61-mm outer diameter, Clay Adams, Parsippany, NJ, USA) with a volume of 13 μL was inserted into the lumbar level of the spinal cord as described elsewhere under inhalational isoflurane anesthesia (4% for induction and 1% for maintenance) run by an anesthesia meter (Ugo Basile Gas Anesthesia System, Comerio, Italy). Two days after recovery from anesthesia, the placement of the catheter in the spinal cord was verified by administration of 4% lidocaine (10 μL, followed by 15 μL of saline for flushing). Rats that had no motor impairment after placement of the intrathecal catheter were considered for the study, and rats that developed immediate bilateral paralysis of the hindlimbs after intrathecal administration of lidocaine were selected for the study. For intrathecal administration of the control and test articles, 10 μL of each drug was injected with a 50-μL microinjector (Shanghai Anting Micro-Injector Factory, Shanghai, China) and was flushed with 15 μL of normal saline solution.
To induce hypersensitivity to neuropathic pain, the rats were subjected to spinal nerve ligation as previously described [Kim and Chung (1992)] and [Zhang et al. (2013)]. Unilateral ligation of the L5 and L6 spinal nerves was performed under inhalational isoflurane anesthesia (4% for induction and 1% for maintenance) run by an anesthesia meter (Ugo Basile Gas Anesthesia System). The left L5 and L6 spinal nerves were isolated and tightly ligated with 6-0 silk thread. After ligation, the wound was sutured and the rats were returned to their home cages for recovery. After spinal nerve ligation, only those rats with marked unilateral allodynia to mechanical stimulation (i.e., a hindpaw withdrawal threshold of less than 8 g on the operated side) and with no major impairment were included in the study. Drug testing started 2–4 weeks after spinal nerve ligation.
To assess heat hyperalgesia, the rats were put in a plexiglass box on an elevated glass surface. After an adaptation period of at least 30 min, radiant heat was applied to the plantar medial surface of each hindpaw. The hindpaw withdrawal latency was measured with a Model 390G Plantar Test Analgesia Meter (IITC Life Science Inc.). To prevent tissue damage, the latency cutoff was set at 30 s. The paw withdrawal latency was defined as the time from the onset of radiant heat application to the withdrawal of the hindpaw. Both hindpaws were tested independently three times with a 5-min interval between trials. The result for each test was calculated as the mean of the three repeated measurements.
(§1) The percentage of maximal possible effect (% MPE) was calculated using the following formula: (postdrug threshold in ipsilateral hindlimb – baseline threshold in ipsilateral hindlimb)/(baseline threshold in contralateral hindlimb – baseline threshold in ipsilateral hindlimb) × 100 ([Bowersox et al., 1996]). A % MPE value near 100 indicates normal mechanical thresholds (i.e., near contralateral thresholds), and a value near 0 indicates allodynia. For the dose-response curve analysis, the parameters (i.e., minimum effect; Emax, median effective concentration or dose, or median toxic or lethal dose [EC50, ED50, TD50, or LD50], and Hill coefficient [n]) were calculated from the individual dose-response curves using the Prism program (version 5.01, GraphPad Software, San Diego, CA, USA). […]

[2] = system: pain hypersensitivity in spinal nerve-ligated neuropathic rats; test: Anti-hypersensitivity, normalized (anti-allodynia and anti-hyperalgesia ED50 averaged); type: in vivo, rat; details: intrathecal; average of allodynia and hyperalgesia ED50
Procedure: The percentage of maximal possible effect (% MPE) was calculated using the following formula: (postdrug threshold in ipsilateral hindlimb – baseline threshold in ipsilateral hindlimb)/(baseline threshold in contralateral hindlimb – baseline threshold in ipsilateral hindlimb) × 100 ([Bowersox et al., 1996]). A % MPE value near 100 indicates normal mechanical thresholds (i.e., near contralateral thresholds), and a value near 0 indicates allodynia. For the dose-response curve analysis, the parameters (i.e., minimum effect; Emax, median effective concentration or dose, or median toxic or lethal dose [EC50, ED50, TD50, or LD50], and Hill coefficient [n]) were calculated from the individual dose-response curves using the Prism program (version 5.01, GraphPad Software, San Diego, CA, USA). To determine the parameters of the dose-response curves, the values of response (Y) were fitted by non-linear least-squares curves to the relation Y = a + bx, where x = [D]^n/(ED50^n + [D]^n), [C]^n/(EC50^n + [C]^n), [D]^n/(TD50^n + [D]^n) or [D]^n/(LD50^n + [D]^n), to give each value of ED50, EC50, TD50, or LD50 and b (Emax) yielding a minimum residual sum of squares of deviations from the theoretical curve ([Wang and Pang, 1993]).
Table 1 summarizes the ED50 values in mole base for aconitine, benzolyaconine, and aconine to block pain hypersensitivity. Because anti-allodynia and anti-hyperalgesia were closely correlated, their ED50 values were averaged to obtain a normalized ED50 for anti-hypersensitivity. The ED50 ratios for aconitine and benzolyaconine to block mechanical allodynia and heat hyperalgesia were 1:92 and 1:110, with a normalized ED50 ratio of 1:102.

[3] = system: prodynorphin gene expression in primary cultures of spinal microglia; test: Prodynorphin gene expression in cultured primary spinal microglia (real-time quantitative PCR); type: cell-based, rat
Procedure: Glial cells were isolated from the 1-day-old neonatal rats. The isolated spinal cords were minced and then incubated with trypsin. Dissociated cells were suspended in 75-cm^2 tissue culture flasks (1 × 10^7 cells/flask) precoated with poly-L-lysine and maintained in a 5% CO2 incubator at 37°C. After culture for 10 days, the microglial cells were prepared as floating cell suspensions by shaking the flask at 260 rpm for 2 h. The aliquots were transferred to plates, and the unattached cells were removed by washing with serum-free Dulbecco’s modified Eagle’s medium.
RNA extraction, reverse transcription, and real-time quantitative PCR were performed as previously described ([Chen et al., 2012]). The spinal lumbar enlargements of rats were collected and mechanically homogenized with an electronic microhomogenizer at 4,000 rpm for 10 s in TRIzol on ice. Total RNA from the spinal lumbar enlargements were isolated using TRIzol reagent (Invitrogen, Grand Island, NY, USA). A 1-μg sample of total RNA was reverse-transcribed with a ReverTra Ace qPCR RT-Kit (Toyobo, Japan). Real-time quantitative PCR was carried out with the Mastercycler ep realplex (Eppendorf, Germany) using the RealmasterMix (SYBR Green I) (Toyobo). The fold change was calculated with the 2^-ΔΔCt method after normalization to the gene of gapdh. […]
as §1, with “A % MPE value near 100 indicates normal mechanical thresholds (i.e., near contralateral thresholds), and a value near 0 indicates allodynia.” left out
Primary cultures of microglial cells taken from the spinal cords of the neonatal rats were treated with a variety of concentrations of aconitine (1 × 10^-8, 3 × 10^-8, 1 × 10^-7, 3 × 10^-7, and 1 × 10^-6 M), benzolyaconine (3 × 10^-7, 1 × 10^-6, 3 × 10^-6, 1 × 10^-5, 3 × 10^-5, and 1 × 10^-4 M) and aconine (1 × 10^-4, 3 × 10^-4, 1 × 10^-3, 3 × 10^-3, and 1 × 10^-2 M) for 2 h. As the bulleyaconitine A-increased dynorphin A level measured by the enzyme-linked immunosorbent assay was in parallel with the prodynorphin gene expression in spinal microglia from neonatal and adult rats ([Li et al., 2016]), the expression of the cellular prodynorphin gene encoding dynorphin A was only measured in this study using real-time quantitative PCR. […]

CCN1C[C@]2(COC)[C@H](O)C[C@H](OC)[C@@]34[C@@H]5C[C@@]6(O)[C@H](OC(=O)c7ccccc7)[C@@H]5[C@@](OC(C)=O)([C@@H]([C@H](OC)[C@H]23)[C@@H]14)[C@@H](O)[C@@H]6OC [Aconitine, aconitine]
Emax, blockade of thermal hyperalgesia ([1]; 1 h after injection): 100 % MPE
ED50, blockade of thermal hyperalgesia ([1]; % MPE at 1 h after injection): 32 pmol
Normalized ED50 for anti-hypersensitivity [2]: 35 pmol
Potency on microglial dynorphin A expression relative to bulleyaconitine A (more potent by) ([3]; EC50 32 nM versus 45 nM): approximately 0.5 fold
EC50 ([3]; Rattus norvegicus, primary spinal microglia of neonatal rats, 2 h incubation, read-out: EC50, stimulation of prodynorphin gene (dynorphin A) expression): 32 nM
